Measured values taken from ChEMBL document CHEMBL5131473, “One-pot synthesis of oxoaporphines as potent antitumor agents and investigation of their mechanisms of actions” (Eur J Med Chem, 2022).
Activity calls are given as the source filed them. The rule behind the calls is not given here.

Columns and labels:
T-24 [1] = assay: Induction of DNA damage in human T24 cells assessed as DNA strand breakage by measuring comet formation at 0.5 uM incubated for 24 hrs by comet assay; type: functional, cell-based
T-24 [2] = assay: Induction of mitochondrial membrane potential dysfunction in human T24 cells assessed as depolarised cells at 1 uM incubated for 24 hrs by JC-1 staining based flow cytometry (reference value: 6.20%); type: functional
T-24 [3] = assay: Induction of mitochondrial membrane potential dysfunction in human T24 cells assessed as shrinking mitochondria at 0.5 uM incubated for 24 hrs by TEM analysis; type: functional, cell-based
T-24 [4] = assay: Induction of mitochondrial mediated apoptosis in human T24 cells assessed as decrease in Bcl-2 protein expression at 0.5 to 1 uM incubated for 24 hrs by Western blotting analysis; type: functional, cell-based; details: dose 0.5-1 µM
T-24 [5] = assay: Induction of mitochondrial mediated apoptosis in human T24 cells assessed as upregulation of cytochrome c expression at 0.5 to 1 uM incubated for 24 hrs by Western blotting analysis; type: functional, cell-based; details: dose 0.5-1 µM
T-24 [6] = assay: Induction of ROS generation in human T24 cells at 0.5 uM by fluorescence microscopy; type: functional, cell-based
T-24 [7] = assay: Induction of cell cycle arrest in human T24 cells assessed as accumulation of cells at G2/M phase at 0.5 uM incubated for 24 hrs by propidium iodide/RNase A staining based flow cytometry analysis (reference value: 5.82 %); type: functional
T-24 [8] = assay: Induction of cell cycle arrest in human T24 cells assessed as accumulation of cells at S phase at 1 uM incubated for 24 hrs by propidium iodide/RNase A staining based flow cytometry analysis (reference value: 42.47 %); type: functional
T-24 [9] = assay: Induction of apoptosis in human T24 cells assessed as viable cells at 1 uM incubated for 24 hrs by Annexin-V/PI staining based flow cytometry analysis (reference value: 94.3 %); type: functional; details: read-out: Activity
T-24 [10] = assay: Cytotoxicity against human T24 cells assessed as decrease in cell viability at 0.5 uM by MTT assay; type: functional, cell-based; details: TDE = time-dependent effect
T-24 [11] = assay: Induction of mitochondrial membrane potential dysfunction in human T24 cells assessed as nuclear condensation at 0.5 to 1 uM by mito-tracker green dye based fluorescence microscopy; type: functional, cell-based; details: dose 0.5-1 µM
T-24 [12] = assay: Induction of mitochondrial membrane potential dysfunction in human T24 cells assessed as disappearance of cristae at 0.5 uM incubated for 24 hrs by TEM analysis; type: functional, cell-based
T-24 [13] = assay: Induction of DNA damage in human T24 cells assessed as DNA strand breakage by measuring comet formation at 10 uM incubated for 24 hrs by comet assay; type: functional, cell-based
T-24 [14] = assay: Induction of DNA damage in human T24 cells assessed as increase in gamma H2AX expression at 10 to 15 uM incubated for 24 hrs by Western blot analysis; type: functional, cell-based; details: dose 10-15 µM
T-24 [15] = assay: Induction of DNA damage in human T24 cells assessed as increase in gamma H2AX phosphorylation at 10 uM incubated for 24 hrs by Hoechst33258 staining based immunofluorescence assay; type: functional, cell-based
T-24 [16] = assay: Induction of apoptosis in human T24 cells assessed as condensation of nuclei at 10 uM by Hoechst33258 staining based fluorescence microscopy; type: functional, cell-based
T-24 [17] = assay: Induction of mitochondrial membrane potential dysfunction in human T24 cells assessed as depolarised cells at 15 uM incubated for 24 hrs by JC-1 staining based flow cytometry (reference value: 6.20%); type: functional
T-24 [18] = assay: Induction of mitochondrial membrane potential dysfunction in human T24 cells assessed as decrease in ATP production at 15 uM; type: functional; parameters: scale not given: the % may be the effect or the level left
T-24 [19] = assay: Induction of mitochondrial membrane potential dysfunction in human T24 cells assessed as change in morphology at 10 to 15 uM by Mitotracker green dye based fluorescence microscopy; type: functional, cell-based; details: dose 10-15 µM
T-24 [20] = assay: Induction of mitochondrial membrane potential dysfunction in human T24 cells assessed as shrinking mitochondria at 10 uM incubated for 24 hrs by TEM analysis; type: functional, cell-based
T-24 [21] = assay: Induction of mitochondrial ROS generation in human T24 cells at 10 uM measured after 24 hrs by DCFH-DA staining based confocal microscopy method; type: functional, cell-based
T-24 [22] = assay: Induction of mitochondrial Ca2+ production in human T24 cells assessed as increase in intracellular Ca2+ concentration at 10 uM by Rhod2-AM staining based fluorescence microscopic method; type: functional, cell-based
T-24 [23] = assay: Induction of apoptosis in human T24 cells assessed as increase in caspase 3 activity at 15 uM (Rvb= 3.1%); type: functional
T-24 [24] = assay: Induction of cell cycle arrest in human T24 cells assessed as accumulation of cells at S phase at 15 uM incubated for 24 hrs by propidium iodide/RNase A staining based flow cytometry analysis (reference value: 42.47 %); type: functional
T-24 [25] = assay: Induction of apoptosis in human T24 cells assessed as viable cells at 10 uM incubated for 24 hrs by Annexin-V/PI staining based flow cytometry analysis (reference value: 94.3 %); type: functional; details: read-out: Activity
T-24 [26] = assay: Induction of apoptosis in human T24 cells assessed as necrotic cells at 20 uM incubated for 24 hrs by Annexin-V/PI staining based flow cytometry analysis (reference value: 1.92 %); type: functional
T-24 [27] = assay: Induction of mitochondrial membrane potential dysfunction in human T24 cells assessed as nuclear condensation at 10 to 15 uM by mito-tracker green dye based fluorescence microscopy; type: functional, cell-based; details: dose 10-15 µM
T-24 [28] = assay: Induction of DNA damage in human T24 cells assessed as increase in […] p53 expression at 2 to 4 uM incubated for 24 hrs by Western blot analysis; type: functional, cell-based; details: dose 2-4 µM
T-24 [29] = assay: Induction of DNA damage in human T24 cells assessed as increase in gamma H2AX expression at 2 to 4 uM incubated for 24 hrs by Western blot analysis; type: functional, cell-based; details: dose 2-4 µM
T-24 [30] = assay: Cytotoxicity against human T24 cells assessed as decrease in cell viability at 2 uM by MTT assay; type: toxicity, cell-based; details: t-24, 72 h, TDE = time-dependent effect
T-24 [31] = assay: Inhibition of colony formation in human T24 cells at 0.08 uM incubated for 24 hrs and measured for 10 days; type: functional, cell-based
T-24 [32] = assay: Induction of cell cycle arrest in human T24 cells assessed as upregulation of Cyclin E expression at 2 to 4 uM incubated for 24 hrs by chemiluminescence based Western blotting analysis; type: functional; details: dose 2-4 µM
T-24 [33] = assay: Induction of DNA damage in human T24 cells assessed as DNA strand breakage by measuring comet formation at 2 uM incubated for 24 hrs by comet assay; type: functional, cell-based
T-24 [34] = assay: Induction of apoptosis in human T24 cells assessed as condensation of nuclei at 2 uM by Hoechst33258 staining based fluorescence microscopy; type: functional, cell-based
T-24 [35] = assay: Induction of mitochondrial ROS generation in human T24 cells at 2 uM measured after 24 hrs by Mitotracker Red dye based confocal microscopy method; type: functional, cell-based
T-24 [36] = assay: Induction of apoptosis in human T24 cells assessed as late apoptotic cells at 4 uM incubated for 24 hrs by Annexin-V/PI staining based flow cytometry analysis (reference value: 0.543 %); type: functional
T-24 [37] = assay: Induction of apoptosis in human T24 cells assessed as late apoptotic cells at 6 uM incubated for 24 hrs by Annexin-V/PI staining based flow cytometry analysis (reference value: 0.543 %); type: functional
T-24 [38] = assay: Induction of apoptosis in human T24 cells assessed as condensed chromatin at 2 uM by Hoechst33258 staining based fluorescence microscopy; type: functional, cell-based

O=C1c2ccccc2-c2ccc([N+](=O)[O-])c3ccnc1c23
Activity (T-24 [1]): Active
Activity (T-24 [2]): 44.5%
Activity (T-24 [3]): Active
Activity (T-24 [4]): Active
Activity (T-24 [5]): Active
Activity (T-24 [6]): Active
Activity (T-24 [7]): 52.05%
Activity (T-24 [8]): 35.21%
viability at 1 µM (T-24 [9]): 52.6%
Activity (T-24 [10]): Tde
Activity (T-24 [11]): Active
Activity (T-24 [12]): Active

O=C1c2ccccc2-c2cccc3ccnc1c23
Activity (T-24 [13]): Active
Activity (T-24 [14]): Active
Activity (T-24 [15]): Active
Activity (T-24 [16]): Active
Activity (T-24 [17]): 25.6%
Activity (T-24 [18]): 66.2%
Activity (T-24 [19]): Active
Activity (T-24 [20]): Active
Activity (T-24 [21]): Active
Activity (T-24 [22]): Active
Activity (T-24 [23]): 25.5%
Activity (T-24 [24]): 46.29%
viability at 10 µM (T-24 [25]): 79.1%
Activity (T-24 [26]): 2.31%
Activity (T-24 [27]): Active

O=C1c2cc([N+](=O)[O-])ccc2-c2ccc([N+](=O)[O-])c3ccnc1c23
Activity (T-24 [28]): Active
Activity (T-24 [29]): Active
Activity (T-24 [30]): Tde
inhibition (T-24 [31]): Active
Activity (T-24 [32]): Active
Activity (T-24 [33]): Active
Activity (T-24 [34]): Active
Activity (T-24 [35]): Active
Activity (T-24 [36]): 5.49%
Activity (T-24 [37]): 6.56%
Activity (T-24 [38]): Active
